Here are results for 2 compounds from patent US7563805B2, “Tri-, tetra-substituted-3-aminopyrrolidine derivative” (Daiichi Pharmaceutical Co., Ltd., priority 2005, dated 2009).

Data set [1] relates to E. coli NIHJ. Kind of data set: antibacterial activity (MIC), standard method of Japanese Society of Chemotherapy. The conditions noted are these: Escherichia coli.
The test system of data set [2] is P. vulgaris, 08601. The description is as above. The conditions noted are these: Proteus vulgaris, 08601, P. vulgaris.
The subject of data set [3] is S. marscecens, 10100. The data set is described as above.
Data set [4] relates to P. aeruginosa, 32104. Described as above. The note with it: Pseudomonas aeruginosa.
In data set [5] the test system is P. aeruginosa, 32121. The description is as above. The conditions noted are these: Pseudomonas aeruginosa.
For data set [6], the system named is S. aureus, 209P. Described as above. The conditions noted are these: Staphylococcus aureus.
Data set [7] deals with S. epidermidis, 56500. The description is as above. The conditions noted are these: Staphylococcus epidermidis, 56500, S. epidermidis.
Data set [8] deals with E. faecalis, ATCC 19433. Described as above. The conditions noted are these: Enterococcus faecalis, ATCC19433, E. faecalis.
Data set [9] has as its system S. aureus, 87037 (LVFX-resistant MRSA). Described as above. The note with it: Staphylococcus aureus, MRSA, S. aureus, 87037 (LVFX-resistant MRSA).
Data set [10] has as its system S. pneumoniae, J24 (penicillin-intermediate resistant bacteria). The description is as above. The conditions noted are these: Streptococcus pneumoniae.
Data set [11] can be described thus: potential convulsant activity upon intracisternal administration, with and without 4-biphenyl acetic acid (BPAA). The conditions noted are these: 5 μg/5 μL/mouse i. cist.
Description: The potential convulsant activity upon intracisternal administration to mouse was also evaluated for the concomitant and administration with 4-biphenyl acetic acid (BPAA: an active metabolite of fenbufen) and in the absence of such concomitant administration. The evaluation was conducted by using 4 week old male Slc:ddY mice (6 animals per group) and intracisternally administering the test substance at a dose of 5 μg/5 μL/mouse (solvent, 0.5% lactic acid). Monitoring of the animals for the convulsion and death was started immediately after the administration and continued to 30 minutes after the administration. When used concomitantly with the BPAA, BPAA was suspended in 5% CMC, and 400 mg/kg was orally administered at a solution amount of 10 mL/kg, and the test substance was intracisternally administered 30 minutes after the BPAA.
Data set [12] deals with hERG K+ channel (Homo sapiens, UniProt Q12809). Kind of data set: hERG-K^+ channel blocking effect. For orientation: Block of hERG is tested as a sign of cardiac risk.

Values after ≈ are worked out from the molar mass of the structure shown. Marks after values point to notes of the source that are not given here.

Chain of hERG K+ channel (Q12809 whole entry): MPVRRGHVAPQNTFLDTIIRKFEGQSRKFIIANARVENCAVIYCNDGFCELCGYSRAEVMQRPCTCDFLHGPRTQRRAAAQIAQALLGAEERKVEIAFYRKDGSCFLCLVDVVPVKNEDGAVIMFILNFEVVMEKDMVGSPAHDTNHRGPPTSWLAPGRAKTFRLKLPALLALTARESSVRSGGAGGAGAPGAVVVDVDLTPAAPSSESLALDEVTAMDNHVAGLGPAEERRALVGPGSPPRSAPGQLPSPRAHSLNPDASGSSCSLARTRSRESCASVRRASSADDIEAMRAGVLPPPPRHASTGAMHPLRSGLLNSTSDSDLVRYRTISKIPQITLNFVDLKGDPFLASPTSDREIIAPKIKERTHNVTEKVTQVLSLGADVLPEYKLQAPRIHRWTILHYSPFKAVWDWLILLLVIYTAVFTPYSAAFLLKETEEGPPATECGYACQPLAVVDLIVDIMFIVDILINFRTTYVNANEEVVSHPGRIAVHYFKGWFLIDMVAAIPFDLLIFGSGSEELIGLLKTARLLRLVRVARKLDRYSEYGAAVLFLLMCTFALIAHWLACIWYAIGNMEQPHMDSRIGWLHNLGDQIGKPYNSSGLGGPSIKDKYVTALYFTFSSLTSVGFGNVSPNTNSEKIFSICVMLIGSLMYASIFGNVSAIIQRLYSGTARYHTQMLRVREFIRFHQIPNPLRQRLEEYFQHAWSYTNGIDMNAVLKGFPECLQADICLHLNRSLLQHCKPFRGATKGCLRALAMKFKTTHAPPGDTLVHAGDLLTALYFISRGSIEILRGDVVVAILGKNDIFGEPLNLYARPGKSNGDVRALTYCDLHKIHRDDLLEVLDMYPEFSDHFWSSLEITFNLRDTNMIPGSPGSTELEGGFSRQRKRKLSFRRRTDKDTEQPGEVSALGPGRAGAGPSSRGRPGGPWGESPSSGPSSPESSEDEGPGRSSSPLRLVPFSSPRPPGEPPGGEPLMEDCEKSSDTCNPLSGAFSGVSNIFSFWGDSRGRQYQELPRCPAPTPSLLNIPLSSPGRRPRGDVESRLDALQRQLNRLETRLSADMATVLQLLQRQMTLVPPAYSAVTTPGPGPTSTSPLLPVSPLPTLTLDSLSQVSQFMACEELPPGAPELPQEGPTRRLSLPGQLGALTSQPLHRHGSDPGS

In general, MIC refers to the lowest concentration that inhibits growth of the organism. A higher MIC goes with weaker potency. Turning to `O=C(O)c1cn(C2CC2)c2cc(N3CCNCC3)c(F)cc2c1=O` [CPFX, ciprofloxacin, reference compound], the MIC is at most 0.003 µg/mL in data set [1]; at most 0.003 µg/mL in [2]; 0.025 µg/mL (≈ 0.0754 µM) in data set [3]; 0.05 µg/mL (≈ 0.151 µM) in data set [4]; 0.025 µg/mL (≈ 0.0754 µM) in data set [5]; 0.1 µg/mL (≈ 0.302 µM) in data set [6]. Moreover, the MIC was 0.2 µg/mL (≈ 0.604 µM) in [7], 0.78 µg/mL (≈ 2.35 µM) in data set [8], over 6.25 µg/mL in data set [9] and 0.39 µg/mL (≈ 1.18 µM) in data set [10]. The “number of dead animals” value in data set [11] ((with BPAA 400 mg/kg oral, 30 minutes before)) was 6/6**^## (6/6**^##); in [11] ((without BPAA)) it was 0/6 (0/6).
In general, melting point refers to the temperature of the solid-liquid transition. The inhibition is the relative decrease from the control value, in per cent. Turning to `Cc1c(N2C[C@H](CF)[C@](C)(N)C2)c(F)cc2c(=O)c(C(=O)O)cn([C@@H]3C[C@@H]3F)c12` [Example 22, 7-[(3S,4S)-3-Amino-4-fluoromethyl-3-methylpyrrolidin-1-yl]-6-fluoro-1-[(1R,2S)-2-fluoro-1-cyclopropyl]-8-methyl-1,4-dihydro-4-oxoquinoline-3-carboxylic acid], the melting point was 135 to 137 °C. In data set [12], the inhibition at 30 µM was -1.3 ± 10.1%, the inhibition at 100 µM was -0.6 ± 7.9% and the inhibition at 300 µM amounted to 21.5 ± 6.9%. The same compound gave an MIC in data set [1] of 0.012 µg/mL (≈ 0.0293 µM). The same compound showed a minimum inhibitory concentration (MIC) in data set [2] of 0.012 µg/mL (≈ 0.0293 µM). This compound returned an MIC in data set [3] of 0.1 µg/mL (≈ 0.244 µM). Further, in data set [4], the lowest concentration to inhibit growth (MIC) was 0.39 µg/mL (≈ 0.953 µM). The compound further came in with an MIC in data set [5] of 0.1 µg/mL (≈ 0.244 µM). Besides, the lowest concentration to inhibit growth in [6] (MIC) was 0.025 µg/mL (≈ 0.0611 µM). The same compound showed an MIC in data set [7] of 0.05 µg/mL (≈ 0.122 µM). Further, it took 0.2 µg/mL (≈ 0.489 µM) to inhibit growth in data set [8] (MIC). The compound also showed an MIC in data set [9] of 0.78 µg/mL (≈ 1.91 µM). The MIC in data set [10] came out at 0.1 µg/mL (≈ 0.244 µM).
